Data published in patent publication US9738591B2, “Antimicrobial compounds” (priority 2009, dated 2017).
≈ marks a conversion by molar mass, not a printed value. Like-named read-outs stand apart in the source and are kept apart here.

Experiments:
[1] = Storage stability of master stock solution; format: physicochemical; settings: 10 mg/ml in 100% DMSO, foil-covered glass bottles, −20° C.; results not shown
Protocol: 10 mg/ml stock solution of TSB007 was prepared in 100% DMSO. Master stock solutions of TSB007 (10 mg/ml) were made by dissolving 20 mg dehydrated compound in 2 ml 100% DMSO. They were stored in foil-covered glass bottles at −20° C. Master stocks stored in this way retained full antimicrobial activity for a minimum period of 6 weeks (results not shown).

[2] = tested on: Vibrio cholerae (non-toxigenic) M3695; assay: Disk diffusion; format: cell-based; settings: 10 mg/ml, 20 μl, (other strain?)
[3] = tested on: Yersinia enterocolitica ATCC 9610; assay: Disk diffusion; format: cell-based; settings: 10 mg/ml, 20 μl
[4] = tested on: S. pneumoniae ATCC 49619; assay: MIC and MBC by broth microdilution; format: cell-based; settings: Streptococcus pneumoniae, ATCC49619, CA-MHB+LHB, two independent replicates
Protocol: (§1) The method used was based on CLSI protocols for broth microdilution testing of these species. As recommended by CLSI, inocula were prepared by direct colony suspension, and the media used were cation-adjusted Mueller Hinton broth (CA-MHB) for Staphylococcus spp. and CA-MHB containing 5% lysed horse blood (CA-MHB+LHB) for Streptococcus spp. Briefly, 24 h blood agar plate (BA) cultures of Staphylococcus aureus strains NCTC 6571, ATCC 29213, ATCC 33592 (MRSA) and NCTC 10442 (MRSA), Staphylococcus epidermidis ATCC 29971, Staphylococcus xylosus ATCC 29971, Streptococcus pneumoniae strains ATCC 49619 and ATCC 6305, and Streptococcus pyogenes strains NCTC 8191 and NCTC 8302 were used to prepare 0.5 McFarland suspensions in saline. Two 640 μg/ml working stocks of TSB007 were prepared from a fresh master stock, one in CA-MHB for testing against the Staphylococcus spp. and the other in CA-MHB+LHB for testing against Streptococcus spp. The working stocks were further diluted 1/10 in these broths for adding to microtitre trays to test MICs of 32, 16, 8, 4, 2, 1, 0.5, 0.25, 0.125 and 0.06 μg/ml.
(§2) The wells of two 96-well microtitre trays (one for Staphylococcus spp. and one for Streptococcus spp.) were filled with 100 μl of the appropriate broth, except for the first column. The last column, a sterility control containing no TSB007 or inoculum, was filled with an additional 100 μl broth. Then 100 μl of the 64 μg/ml TSB007 solution was added to the first two columns, the contents of column 2 was mixed, then 100 μl of this was used in two-fold serial dilutions along the rest of the tray except the last two columns. The final 100 μl was discarded. […] Finally, to the first 11 wells of one row per strain, 100 μl of a 10^−2 dilution (in the appropriate broth) of the 0.5 McFarland suspension was added. The microtitre trays were then incubated at 35° C. for 24 h before the MICs were read visually. Wells were further subcultured (10 μl drop onto BA then incubated at 35° C. for 24 h) and colonies subsequently counted to determine minimum bactericidal concentrations (MBCs). The concentration of the initial inoculum was confirmed on BA by counting colonies from 2×10 μl spots of 10^−5 dilutions of the 0.5 McFarland suspensions. Testing was performed on two separate occasions.

[5] = tested on: S. pyogenes NCTC 8191; assay: MIC and MBC by broth microdilution; format: cell-based; settings: Streptococcus pyogenes, NCTC8191, CA-MHB+LHB, two independent replicates
Protocol: as §1, §2

[6] = tested on: S. xylosus ATCC 29971; assay: MIC and MBC by broth microdilution; format: cell-based; settings: Staphylococcus xylosus, ATCC29971, CA-MHB, two independent replicates
Protocol: as §1, §2

[7] = tested on: S. aureus and S. epidermidis; assay: MIC by broth microdilution; format: cell-based; settings: CA-MHB, read-out: lowest MICs
Protocol: as §1, with “The working stocks were further diluted 1/10 in these broths for adding to microtitre trays to test MICs of 32, 16, 8, 4, 2, 1, 0.5, 0.25, 0.125 and 0.06 μg/ml.” left out
The wells of two 96-well microtitre trays (one for Staphylococcus spp. and one for Streptococcus spp.) were filled with 100 μl of the appropriate broth, except for the first column. […] The microtitre trays were then incubated at 35° C. for 24 h before the MICs were read visually. Wells were further subcultured (10 μl drop onto BA then incubated at 35° C. for 24 h) and colonies subsequently counted to determine minimum bactericidal concentrations (MBCs). […]

[8] = tested on: S. aureus NCTC 6571; assay: Time-kill experiments; format: cell-based; settings: for effect on viability over the 4 h of the experiment: MHB, 37° C.; for effect on viability over the 4 h of the experiment / viable counts at 24 h: initial 0.5-1.0×10^7 CFU/ml
Protocol: An overnight 10 ml MHB culture of S. aureus NCTC 6571 was diluted to 0.5 McFarland in MHB then 1 ml was used to inoculate each of four 100 ml flasks prepared as follows: • 1) 9.0 ml MHB (control) • 2) 9.99 ml MHB plus 9.7 μl of TSB007 working stock at 2048 μg/ml (1.8 μg/ml) • 3) 9.98 ml MHB plus 19.5 μl of TSB007 working stock at 2048 μg/ml (3.6 μg/ml) • 4) […] MHB plus 256 μl of a TSB007 master stock (320 μg/ml).
The flasks were incubated at 37° C. for 10 min before inoculation. Samples (0.1 ml) were taken immediately after inoculation (time 0) and then at 15, 30, 60, 120 and 240 min. The samples were immediately diluted 10^−1 in 0.01 M phosphate buffered saline at pH 7.0 (PBS). Further 10-fold dilutions in PBS were made down to 10^−4 until the 60 min time point, and then down to 10^−6 for the remaining time points. Viable counts were estimated using 3×20 μl drops from each dilution on MHA which was then incubated at 37° C. overnight before counting. These were normalised against the initial counts from each flask. Testing was performed on three separated occasions.

[9] = tested on: Escherichia coli NCTC 10538; assay: Disk diffusion; settings: 10 mg/ml, 20 μl; repeat; value printed with '?'
[10] = tested on: Staphylococcus aureus NCTC 6571/ATCC 9144; assay: Disk diffusion; settings: for zone of inhibition at 10000 µg/mL: Staphylococcus aureus
[11] = tested on: Staphylococcus aureus (methicillin resistant) NCTC 10442; assay: Disk diffusion; settings: for zone of inhibition at 10000 µg/mL: Staphylococcus aureus
[12] = tested on: Streptococcus pneumoniae ATCC 49619; assay: Disk diffusion; settings: 10 mg/ml, 20 μl, Mueller Hinton + Blood & Incubated in 5% CO2

O=C(O)c1ccc(/C=C/c2cc(/C=C/c3ccc(C(=O)O)cc3)cc(/C=C/c3ccc(C(=O)O)cc3)c2)cc1 [TSB007]
minimum period for which master stocks retained full antimicrobial activity [1]: ≥ 6 weeks
Zone diameters, Repeat Results [2]: 7 trim
Zone diameters, 24 h TSB007 [3]: 7 trim
MIC ([4]; 35° C., 24 h): 32 µg/mL (≈ 61.9 µM)
MBC [4]: > 32 µg/mL
MIC ([5]; 35° C., 24 h): > 32 µg/mL
MBC [5]: > 32 µg/mL
MIC ([6]; 35° C., 24 h): 8 to 16 µg/mL (≈ 15.5 to 31 µM)
MBC [6]: 8 to 16 µg/mL (≈ 15.5 to 31 µM)
MIC [7]: 4 µg/mL (≈ 7.74 µM)
effect on viability over the 4 h of the experiment ([8]; 1.8 μg/ml): inhibitory
viable counts at 24 h ([8]; 1.8 μg/ml): 10^8 CFU/ml
effect on viability over the 4 h of the experiment ([8]; 3.6 μg/ml): inhibitory
viable counts at 24 h ([8]; 3.6 μg/ml): 10^3-10^6 CFU/ml
viable cells at first time point ([8]; 320 μg/ml (1.25×MBC), 15 min): below the limit of detection
kill ([8]; 320 μg/ml (1.25×MBC), first time point of 15 min): > 99.9%
Zone diameters, Repeat Results [9]: 7.5? trim
Zone diameters, 24 h TSB007 ([10]; 10 mg/ml, 20 μl, 24 h): 20 trim
Zone diameters, 48 h TSB007 ([10]; 10 mg/ml, 20 μl, 48 h): 9 trim
Zone diameters, 48 h O2 ([10]; 10 mg/ml, 20 μl, 48 h, incubated aerobically): No zone
Zone diameters, Repeat Results ([10]; 10 mg/ml, 20 μl, repeat): 21 trim
zone of inhibition at 10000 µg/mL ([10]; ATCC9144|NCTC6571, 24 h, read-out: Zone diameters, 24 h AnO2): 18 mm
zone of inhibition at 10000 µg/mL ([10]; ATCC9144|NCTC6571, 24 h, read-out: Zone diameters, 24 h O2): 14 mm
zone of inhibition at 10000 µg/mL ([10]; ATCC9144|NCTC6571, 48 h, read-out: Zone diameters, 48 h AnO2): 18 mm
Zone diameters, 24 h TSB007 ([11]; 10 mg/ml, 20 μl, 24 h): 18 trim
Zone diameters, 48 h TSB007 ([11]; 10 mg/ml, 20 μl, 48 h): 9 trim
Zone diameters, Repeat Results ([11]; 10 mg/ml, 20 μl, repeat): 23 trim
zone of inhibition at 10000 µg/mL ([11]; NCTC10442, 24 h, read-out: Zone diameters, 24 h AnO2): 17 mm
zone of inhibition at 10000 µg/mL ([11]; NCTC10442, 24 h, read-out: Zone diameters, 24 h O2): 14 mm
zone of inhibition at 10000 µg/mL ([11]; NCTC10442, 48 h, read-out: Zone diameters, 48 h AnO2): 17 mm
zone of inhibition at 10000 µg/mL ([11]; NCTC10442, 48 h, read-out: Zone diameters, 48 h O2): 11 mm
Zone diameters, 24 h TSB007 ([12]; 24 h): 16 trim
Zone diameters, 48 h TSB007 ([12]; 48 h): 16 trim
